Assay results taken from US9273057B2 (Bristol-Myers Squibb Company, priority 2012, dated 2016).

Target: CK2A1 (CK2α/β) (Homo sapiens, UniProt P68400)
Assay: CK2 kinase assay, CK2A1 (CK2α/β)
Type: biochemical
Conditions: Table A; read-out: CK2A1 (CK2α/β) (IC50)

CK2A1 (CK2α/β), sequence (P68400 whole entry, species assumed): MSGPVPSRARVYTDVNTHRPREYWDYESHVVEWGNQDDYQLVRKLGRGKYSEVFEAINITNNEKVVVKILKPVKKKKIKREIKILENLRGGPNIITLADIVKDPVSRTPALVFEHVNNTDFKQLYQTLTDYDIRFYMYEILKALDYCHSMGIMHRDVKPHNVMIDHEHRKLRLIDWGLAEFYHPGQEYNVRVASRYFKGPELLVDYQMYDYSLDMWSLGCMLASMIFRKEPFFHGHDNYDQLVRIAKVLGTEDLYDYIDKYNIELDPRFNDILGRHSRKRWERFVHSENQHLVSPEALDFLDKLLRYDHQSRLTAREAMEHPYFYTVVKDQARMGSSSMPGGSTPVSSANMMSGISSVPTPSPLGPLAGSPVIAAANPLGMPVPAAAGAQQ
CK2A1 (CK2α/β), sequence (P67870 whole entry partner, species assumed): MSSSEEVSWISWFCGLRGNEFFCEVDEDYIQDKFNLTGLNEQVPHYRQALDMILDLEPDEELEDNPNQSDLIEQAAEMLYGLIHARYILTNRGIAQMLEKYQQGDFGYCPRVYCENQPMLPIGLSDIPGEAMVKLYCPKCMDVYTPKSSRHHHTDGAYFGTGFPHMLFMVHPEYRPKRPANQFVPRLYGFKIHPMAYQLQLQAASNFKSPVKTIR

| Structure (SMILES) | IC50 [nM] |
| --- | --- |
| CCNc1nc(Nc2cc(C#N)cc(N3CCN([C@H]4C[C@@H](O)C4)CC3)c2Cl)nn2c(C#N)cnc12 [Example 610, 2-[(2-chloro-5-cyano-3-{4-[(1a,3s)-3-hydroxycyclobutyl]piperazin-1-yl}phenyl)amino]-4-(ethylamino)imidazo[2,1-f][1,2,4]triazine-7-carbonitrile] | 1.08 |
| CNC(=O)CN1CCN(c2cc(C#N)cc(Nc3nc(NC4CC4)c4ncc(C#N)n4n3)c2Cl)CC1 [Example 611, 2-[4-(2-chloro-5-cyano-3-{[7-cyano-4-(cyclopropylamino)imidazo [2,1-f][1,2,4]triazin-2-yl]amino}phenyl)piperazin-1-yl]-N-methylacetamide] | 0.65 |
| N#Cc1cc(Nc2nc(NC3CC3)c3ncc(C#N)n3n2)c(Cl)c(N2CCN(C3CNC3)CC2)c1 [Example 612, 2-({3-[4-(azetidin-3-yl)piperazin-1-yl]-2-chloro-5-cyanophenyl}amino)-4-(cyclopropylamino)imidazo [2,1-f][1,2,4]triazine-7-carbonitrile] | 0.43 |
| CCNc1nc(Nc2cc(C#N)cc(N3CCN([C@H]4C[C@H](O)C4)CC3)c2Cl)nn2c(C#N)cnc12 [Example 613, 2-[(2-chloro-5-cyano-3-{4-[(1r,3r)-3-hydroxycyclobutyl]piperazin-1-yl}phenyl)amino]-4-(ethylamino)imidazo [2,1-f][1,2,4]triazine-7-carbonitrile] | 1.62 |
| N#Cc1cc(Nc2nc(NC3CC3)c3ncc(C#N)n3n2)c(Cl)c(N2CCN(C3CN(CC(O)CF)C3)CC2)c1 (stereo not drawn) [Example 614, 2-[(2-chloro-5-cyano-3-{4-[1-(3-fluoro-2-hydroxypropyl)azetidin-3-yl]piperazin-1-yl}phenyl)amino]-4-(cyclopropylamino)imidazo [2,1-f][1,2,4]triazine-7-carbonitrile] | 2.5 |
| N#Cc1cc(NCCO)c(Cl)c(Nc2nc(NC3CC3)c3ncc(C#N)n3n2)c1 [Example 615, 2-((2-chloro-5-cyano-3-((2-hydroxyethyl)amino)phenyl)amino)-4-(cyclopropylamino)imidazo[2,1-f][1,2,4]triazine-7-carbonitrile] | 0.18 |
| COCCOCCNc1cc(C#N)cc(Nc2nc(NC3CC3)c3ncc(C#N)n3n2)c1Cl [Example 616, 2-((2-chloro-5-cyano-3-((2-(2-methoxyethoxy)ethyl)amino)phenyl)amino)-4-(cyclopropylamino)imidazo[2,1-f][1,2,4]triazine-7-carbonitrile] | 0.86 |
| N#Cc1cc(NCCCO)c(Cl)c(Nc2nc(NC3CC3)c3ncc(C#N)n3n2)c1 [Example 617, 2-((2-chloro-5-cyano-3-((3-hydroxypropyl)amino)phenyl)amino)-4-(cyclopropylamino)imidazo[2,1-f][1,2,4]triazine-7-carbonitrile] | 0.34 |
| CN1CCN(c2cc(C#N)cc(Nc3nc(NC4CC4)c4ncc(C#N)n4n3)c2Cl)C(=O)C1 [Example 618, 2-((2-chloro-5-cyano-3-(4-methyl-2-oxopiperazin-1-yl)phenyl)amino)-4-(cyclopropylamino)imidazo[2,1-f][1,2,4]triazine-7-carbonitrile] | 2.07 |
| CN(CCO)CC(=O)Nc1cc(C#N)cc(Nc2nc(NC3CC3)c3ncc(C#N)n3n2)c1Cl [Example 619, N-(2-chloro-5-cyano-3-((7-cyano-4-(cyclopropylamino)imidazo[2,1-f][1,2,4]triazin-2-yl)amino)phenyl)-2-((2-hydroxyethyl)(methyl)amino)acetamide] | 1.66 |
| CN(C)CC(=O)Nc1cc(C#N)cc(Nc2nc(NC3CC3)c3ncc(C#N)n3n2)c1Cl [Example 620, N-(2-chloro-5-cyano-3-((7-cyano-4-(cyclopropylamino)imidazo[2,1-f][1,2,4]triazin-2-yl)amino)phenyl)-2-(dimethylamino)acetamide] | 1.77 |
| N#Cc1cc(NC(=O)CN2CCOCC2)c(Cl)c(Nc2nc(NC3CC3)c3ncc(C#N)n3n2)c1 [Example 621, N-(2-chloro-5-cyano-3-((7-cyano-4-(cyclopropylamino)imidazo[2,1-f][1,2,4]triazin-2-yl)amino)phenyl)-2-morpholinoacetamide] | 1.62 |
| N#Cc1cc(Nc2nc(NC3CC3)c3ncc(C#N)n3n2)c(Cl)c(N2CCN(CC(N)=O)CC2=O)c1 [Example 623, 2-(4-(2-chloro-5-cyano-3-((7-cyano-4-(cyclopropylamino)imidazo[2,1-f][1,2,4]triazin-2-yl)amino)phenyl)-3-oxopiperazin-1-yl)acetamide] | 3.05 |
| CNC(=O)CN1CCN(c2cc(C#N)cc(Nc3nc(NC4CC4)c4ncc(C#N)n4n3)c2Cl)C(=O)C1 [Example 625, 2-(4-(2-chloro-5-cyano-3-((7-cyano-4-(cyclopropylamino)imidazo[2,1-f][1,2,4]triazin-2-yl)amino)phenyl)-3-oxopiperazin-1-yl)-N-methylacetamide] | 5.8 |
| N#Cc1cc(Nc2nc(NC3CC3)c3ncc(C#N)n3n2)c(Cl)c(N2CCCOC2=O)c1 [Example 627, 2-((2-chloro-5-cyano-3-(2-oxo-1,3-oxazinan-3-yl)phenyl)amino)-4-(cyclopropylamino)imidazo[2,1-f][1,2,4]triazine-7-carbonitrile] | 0.83 |
| N#Cc1cc(Nc2nc(NC3CC3)c3ncc(C#N)n3n2)c(Cl)c(N2CCNCC2=O)c1 [Example 628, 2-((2-chloro-5-cyano-3-(2-oxopiperazin-1-yl)phenyl)amino)-4-(cyclopropylamino)imidazo[2,1-f][1,2,4]triazine-7-carbonitrile] | 9.85 |
| CN1CCN(c2cc(C#N)cc(Nc3nc(NC4CC4)c4ncc(C#N)n4n3)c2)C(=O)C1 [Example 629, 2-((3-cyano-5-(4-methyl-2-oxopiperazin-1-yl)phenyl)amino)-4-(cyclopropylamino)imidazo[2,1-f][1,2,4]triazine-7-carbonitrile] | 6 |
| CCNc1nc(Nc2cc(C#N)cc(NCCO)c2Cl)nn2c(C#N)cnc12 [Example 630, 2-((2-chloro-5-cyano-3-((2-hydroxyethyl)amino)phenyl)amino)-4-(ethylamino)imidazo[2,1-f][1,2,4]triazine-7-carbonitrile] | 0.68 |
| COc1ccc(CN2CCN(c3cc(C#N)cc(Nc4nc(NC5CC5)c5ncc(C#N)n5n4)c3Cl)C(=O)C2)cc1 [Example 631, 2-((2-chloro-5-cyano-3-(4-(4-methoxybenzyl)-2-oxopiperazin-1-yl)phenyl)amino)-4-(cyclopropylamino)imidazo[2,1-f][1,2,4]triazine-7-carbonitrile] | 1.1 |
| N#Cc1cc2c(c(Nc3nc(NC4CC4)c4ncc(C#N)n4n3)c1)NCCOCC(=O)N2 [Example 632, 11-((7-cyano-4-(cyclopropylamino)imidazo[2,1-f][1,2,4]triazin-2-yl)amino)-6-oxo-1,2,3,5,6,7-hexahydrobenzo[e][1,4,7]oxadiazonine-9-carbonitrile] | 1.45 |
| CC(=O)N1CC(N2CCN(c3cc(C#N)cc(Nc4nc(NC5CC5)c5ncc(C#N)n5n4)c3Cl)C(=O)C2)C1 [Example 633, 2-((3-(4-(1-acetylazetidin-3-yl)-2-oxopiperazin-1-yl)-2-chloro-5-cyanophenyl)amino)-4-(cyclopropylamino)imidazo[2,1-f][1,2,4]triazine-7-carbonitrile] | 1.2 |
